Key:
Plasmodium falciparum [1] = experiment: NOVARTIS: Inhibition of Plasmodium falciparum W2 (drug-resistant) proliferation in erythrocyte-based infection assay; type: functional, organism-based; conditions: Plasmodium falciparum, W2; read-out: EC50
[2] = NOVARTIS: Cytotoxicity against human hepatocellular carcinoma cell line (Huh7); type: toxicity, cell-based, Huh-7; conditions: Huh7 cells (hepatocellular carcinoma cell line)
Plasmodium falciparum [3] = experiment: NOVARTIS: Inhibition of Plasmodium falciparum 3D7 (drug-susceptible) proliferation in erythrocyte-based infection assay; type: functional, organism-based; conditions: Plasmodium falciparum, 3D7

| Structure (SMILES) | EC50 (Plasmodium falciparum [1]) [µM] | CC50 [2] [µM] | EC50 (Plasmodium falciparum [3]) [µM] |
| --- | --- | --- | --- |
| COc1ccc(C2C3=C(O)CC(C)(C)CC3=Nc3[nH]nc(C)c32)cc1 (configuration not stated) | > 12.5 | > 100 | > 3.32 |
| COC(=O)C1=C(C)N/C(=C\c2cc(C)n(-c3cc(C)ccc3OC)c2C)C1=O | > 1.25 | > 10 | 0.4 |
| Cc1[nH]n(-c2ccccc2)c(=O)c1C(=O)CN(C(=O)c1ccc2c(c1)OCO2)C(C)C | > 1.25 | > 10 | > 0.469 |
| O=C(CNC(=O)c1ccccc1)Oc1ccc(Cl)cc1 | > 1.25 | > 10 | 0.537 |
| O=S1(=O)CCC(O)c2ccsc21 (configuration not stated) | > 12.5 | > 100 | 4.18 |
| Oc1c2c(nc3cc(-c4ccc(Cl)cc4)nn13)CCCC2 | > 12.5 | > 100 | 6.48 |
| Cc1ccnc(Nc2nc(-c3ccc(Cl)cc3)cs2)c1 | > 12.5 | > 100 | 4.51 |
| O=C(Nc1cccnc1)c1cc(-c2cccnc2)nc2ccc(Cl)cc12 | > 12.5 | > 100 | 3.96 |
| COc1ccc(C2N=C(N)N=C(N)N2c2ccc(Cl)cc2)cc1OC (configuration not stated) | > 1.25 | > 10 | 0.326 |
| CS(=O)(=O)c1cnc2ncnn2c1C1CCCN(C(=O)c2ccccn2)C1 (configuration not stated) | > 1.25 | > 10 | 0.311 |
| CCOC(=O)C1=C(C)N(c2ccc(OCC)cc2)C(=O)C1=Cc1ccc(C(C)C)cc1 | > 12.5 | > 100 | 3.5 |
| Cn1nc(C(C)(C)C)cc1C(=O)N1CCCN1C(=O)CNC(=O)c1ccco1 | > 1.25 | > 10 | > 0.335 |
| Cc1ccc(C(=O)CSc2nc(N)c(C#N)c(-c3cccs3)c2C#N)cc1 | > 12.5 | > 100 | > 5 |
| C[N+]1(CCOC(=O)CCC(=O)OCC[N+]2(C)CCCCCC2)CCCCCC1 | > 1.25 | > 10 | > 0.479 |
| COc1ccc2c(c1)C(C)=CC(C)(C)N2C(=O)CSc1nnc(-c2ccc(C)cc2)o1 | > 1.25 | > 10 | 0.467 |
| COC(=O)c1c(-c2c(F)cccc2Cl)noc1/C=C/Nc1ccc(OC)cc1 | > 1.25 | > 10 | 0.427 |
| CCN1CCN(c2cc(C)c3cc(NC(=O)/C=C/c4cc(OC)ccc4OC)ccc3n2)CC1 | > 1.25 | > 10 | 0.397 |
| N#CC(C#N)C(/C(Sc1ccc([N+](=O)[O-])cc1)=C(/O)c1ccccc1)c1cccs1 (configuration not stated) | > 1.25 | > 10 | > 0.403 |
| COc1ccc(-c2ccc(C=NNC(=O)CNC(=O)c3ccc4c(c3)OCO4)o2)cc1Cl | > 1.25 | > 10 | > 0.375 |
| O=C(NCCc1ccccc1)c1cnc(NCCCN2CCCC2)nc1Nc1ccccc1 | > 1.25 | > 10 | 0.541 |
| O=C(CCNS(=O)(=O)c1ccc(Br)s1)N1CCc2ccccc2C1 | > 12.5 | > 100 | > 5.6 |
| CCc1c(C#N)c(N)nc2sc(C(=O)c3ccc(Br)cc3)c(N)c12 | > 12.5 | > 100 | 5.46 |
| CCCC(C(=O)NCCC(C)C)N(C(=O)c1snc(C(N)=O)c1N)c1ccc(C(C)C)cc1 (configuration not stated) | > 12.5 | > 100 | 5.44 |
| CC(C)C1N=C2c3ccccc3N=C(SCC(=O)Nc3cc(C(F)(F)F)ccc3Cl)N2C1=O (configuration not stated) | > 12.5 | > 100 | 5.91 |
| CCCc1cc2c(=O)c(-c3ccc4c(c3)OCO4)c(CC)oc2cc1OC(C)C | > 12.5 | > 100 | 5.84 |
| CCOc1ccc2nc(Sc3nc(Nc4cccc(C)c4)nc(Nc4cccc(C)c4)n3)sc2c1 | > 12.5 | > 100 | 5.81 |
| CN(Cc1ccccc1)C(=O)CSc1nc(NCc2ccccc2)c2ccccc2n1 | > 12.5 | > 100 | > 3.03 |

| Structure (SMILES) | EC50 (Plasmodium falciparum [1]) [µM] | CC50 [2] [µM] | EC50 (Plasmodium falciparum [3]) [µM] |
| --- | --- | --- | --- |
| O=C1Nc2ccccc2Sc2ccccc21 | > 12.5 | > 100 | > 3.03 |
| CCOc1ccc2c(C)nc(NC(N)=NC(C)=O)nc2c1 | > 12.5 | > 100 | 3.02 |
| Cc1nccn1CC(C)C(=O)N1CCCC(n2nc(-c3cccs3)ccc2=O)C1 (configuration not stated) | > 1.25 | > 10 | > 0.62 |
| CC(C)CNc1nc(NCCCN)ncc1C(=O)NCCc1ccccc1 | > 1.25 | > 10 | 0.598 |
| CCCCN(CC)C(=O)CSc1nc2ccccc2c(=O)n1Cc1ccco1 | > 1.25 | > 10 | > 0.594 |
| O=C(NCc1ccccc1)c1cnc(NCCCN2CCCC2)nc1NCCc1ccccc1 | > 1.25 | > 10 | 0.648 |
| CCCCCCC(=O)NC1CCC(Nc2ccnc3cc(Cl)ccc23)CC1 (configuration not stated) | > 1.25 | > 10 | 0.63 |
| CCOc1ccc2nc(SCc3nc(N)nc(N4CCOCC4)n3)sc2c1 | > 1.25 | > 10 | > 0.627 |
| CCOC(=O)c1c(C)[nH]c(C)c1S(=O)(=O)N1CCCC(C(=O)N2CCN(c3cccc(C)c3C)CC2)C1 (configuration not stated) | > 12.5 | > 100 | 5.26 |
| COC(=O)c1cc(NC(=S)NC(=O)c2c(OC)cccc2OC)cc(C(=O)OC)c1 | > 12.5 | > 100 | 5.17 |
| COc1cc(C(=O)Nc2nnc(-c3ccccc3)o2)cc(OC)c1OC | > 12.5 | > 100 | 5.18 |
| COC(=O)c1ccc(N2C(=O)C3C(C2=O)C2(c4ccccc4)C(=O)C3(c3ccccc3)C(c3ccc(OC)cc3)=C2c2ccc(OC)cc2)cc1 (configuration not stated) | > 12.5 | > 100 | 4.83 |
| OC(COc1ccc(OCC(O)CN2CCN(C3c4ccccc4-c4ccccc43)CC2)cc1)CN1CCN(C2c3ccccc3-c3ccccc32)CC1 (configuration not stated) | > 12.5 | > 100 | > 6.19 |
| COc1cccc2cc(-c3nc(-c4ccccc4)cs3)c(=O)oc12 | > 1.25 | > 10 | > 0.611 |
| CC1=NNC(=O)C1C(c1ccc(Cl)cc1Cl)C1C(=O)NN=C1C (configuration not stated) | > 1.25 | > 10 | > 0.484 |
| CCCN1CCC(c2nc(N3CCOCC3)ncc2-c2cc(C)no2)CC1 | > 1.25 | > 10 | > 0.433 |
| CN(C)CCNC(=O)c1c[nH]c2ccc(S(=O)(=O)N3CCc4ccccc43)cc2c1=O | > 1.25 | > 10 | 0.418 |
| COC(=O)c1cn2c(=O)c3ccccc3nc2c2ccccc12 | > 1.25 | > 10 | > 0.385 |
| CCOC(=O)c1ccc(N(C(=O)CSCC(=O)Nc2cc(C)on2)C(C(=O)NC2CCCCC2)c2ccc(O)c(O)c2)cc1 (configuration not stated) | > 1.25 | > 10 | > 0.316 |
| CCCCN(CCCC)S(=O)(=O)c1nc(C)c(Cl)c(C)c1C#N | > 12.5 | > 100 | 3.09 |
| O=C1c2cccc(N3CCN(Cc4cccn4-c4nccs4)CC3)c2C(=O)N1Cc1ccc(Cl)cc1 | > 12.5 | > 100 | 5.47 |
| O=C(CCCOc1ccc(Cl)cc1Cl)NCCCn1ccnc1 | > 1.25 | > 10 | 0.48 |
| COc1ccc(OC)c(NC2=C(Cl)C(=O)N(c3ccc(C)c(Cl)c3)C2=O)c1 | > 12.5 | > 100 | 5.07 |
| COc1ccc(C(=O)n2nc(N)c3cc4ccc(C)cc4nc32)cc1[N+](=O)[O-] | > 12.5 | > 100 | > 5.42 |
| O=C(c1cnsn1)N1CCCC(COc2cccc(CN3CCC(Cc4ccccc4)CC3)c2)C1 (configuration not stated) | > 12.5 | > 100 | > 3.67 |
| O=C(NCc1cc2cc3c(cc2nc1Cl)OCO3)c1ccco1 | > 1.25 | > 10 | > 0.586 |
| Cn1c(=O)c(Cl)c2c3c(c(Cl)ccc31)C(=O)c1ccccc1-2 | > 1.25 | > 10 | > 0.297 |

— ChEMBL document CHEMBL1156829 (Proc Natl Acad Sci U S A, 2008)
